Results taken from article PMC8188212, “Multi‐Arm PEG/Peptidomimetic Conjugate Inhibitors of DR6/APP Interaction Block Hematogenous Tumor Cell Extravasation” (Advanced Science, 2021).
Square brackets hold non-standard residues; d marks the D form. Side chains are listed from the residue outwards. Ends that are not written are not given here. maleimide = maleimide: 4-arm PEG5k maleimide reacting with the C-terminal Cys thiol

Legend:
DR6 protein = biological target: T1, DR6 protein (Homo sapiens, UniProt O75509); test: KD of DR6-targeting peptides for binding to DR6 protein by MST
T1 construct: purchased Sino Biology, Inc. (Shanghai, China)
T1 sequence (O75509 42-655): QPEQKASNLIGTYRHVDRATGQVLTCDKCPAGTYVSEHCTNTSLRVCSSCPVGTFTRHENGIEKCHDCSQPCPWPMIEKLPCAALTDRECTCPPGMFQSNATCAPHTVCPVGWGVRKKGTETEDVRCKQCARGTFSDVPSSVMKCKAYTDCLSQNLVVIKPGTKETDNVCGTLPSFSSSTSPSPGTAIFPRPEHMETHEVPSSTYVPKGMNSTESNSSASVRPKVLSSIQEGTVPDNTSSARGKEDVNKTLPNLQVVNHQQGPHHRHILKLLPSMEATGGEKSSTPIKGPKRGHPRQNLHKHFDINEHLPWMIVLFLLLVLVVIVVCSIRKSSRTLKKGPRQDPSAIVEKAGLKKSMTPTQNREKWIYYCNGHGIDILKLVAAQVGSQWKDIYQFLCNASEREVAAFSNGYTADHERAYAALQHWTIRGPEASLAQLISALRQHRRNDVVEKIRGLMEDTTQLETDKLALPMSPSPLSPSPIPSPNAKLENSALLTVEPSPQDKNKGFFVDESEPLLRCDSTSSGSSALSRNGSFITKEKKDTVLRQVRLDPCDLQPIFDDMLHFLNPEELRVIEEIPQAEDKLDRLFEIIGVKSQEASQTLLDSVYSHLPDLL
Procedure: For labeling DR6 protein with Red‐tris‐NTA second‐generation dye, equal volume of DR6 protein (200 × 10^–9 M) and dye (100 × 10^–9 M) were mixed. The solution was incubated for 30 min at room temperature and centrifuged for 10 min at 4 ℃ and 15 000 × g. The DR6 protein was labeled and ready for the binding assay. Prepare 25 µL of the DR6‐targeting peptides at 20 × 10^–6 M and add 10 µL of the PBS‐T into the PCR tubes 2–12. Transfer 20 µL DR6‐targeting peptides into the PCR tube 1 and then transfer 10 µL of the DR6‐targeting peptides from tube 1 to tube 2 with a pipette and mix by pipetting up and down multiple times. Transfer 10 µL to tube 3 and mix. Repeat the procedure for tube 4–12. Add 10 µL of labeled protein to each tube (1–12) and mix by pipetting. The final DR6 protein concentration was 50× 10^−9 M. Load the capillaries and measure the samples by NanoTemper Monolith NT.015.^[ ^51 , ^52 ^]

[1] = DAPI staining of lung sections after injection of FITC-labeled ligand; format: in vivo; conditions: FITC-labeled ligand intravenously, lungs isolated 30 min later, confocal
Procedure: FITC‐labeled AHP‐DRI‐12 and PEG‐tAHP‐DRI were injected intravenously and 30 min later, lungs were isolated to prepare frozen sections. The frozen sections were stained with DAPI. The representative images were taken on a confocal microscope.

[2] = system: TCs over HUVECs monolayer; test: Transendothelial migration of TCs over HUVEC monolayer; format: cell-based, human; conditions: AHP-DRI-12 and PEG-tAHP-DRI 1 × 10^−6 M (AHP-DRI-12), Nec-1 30 × 10^–6 M, zVAD 100 × 10^–6 M; 48 h; compared with control; n = 3
Procedure: HUVECs (1 × 10^5) in DMEM were added into 24‐well plate transwell upper chambers and the medium was changed every 2 days. Using the EVOM resistance tester, the transendothelial resistance was measured daily. When the TEER resistance value was >200 Ωcm^2, the cells grew into a monolayer of tight connection. 2 × 10^5 GFP‐TCs were added into upper chambers. One milliliter DMEM containing 10% FBS was added into lower chambers overnight. AHP‐DRI‐12 and PEG‐tAHP‐DRI (1 ×10^–6 M AHP‐DRI‐12), Nec‐1 (30 × 10^–6 M), and zVAD (100 × 10^–6 M) were added in upper chambers, respectively. After incubation for 48 h, cells in lower chambers were observed by fluorescence microscope.^[ ^56 ^]

[3] = Pharmacokinetic study after intravenous injection; format: in vivo; conditions: SD rats, FITC-labeled
Procedure: To investigate the pharmacokinetic profile of AHP‐DRI‐12 and PEG‐tAHP‐DRI, SD rats were intravenously injected with FITC‐labeled AHP‐DRI‐12 and PEG‐tAHP‐DRI and blood samples were collected at 0.5, 1, 2, 4, 6, 24, 30, 48, 54, and 72 h. The DR6‐targeting peptide level of blood samples was measured by a microplate reader.

[4] = system: B16F10, 4T1, and CT26 lung metastasis models; test: In vivo anti-metastasis assay, lung metastasis models; design: species or system mice
Procedure: 2 × 10^5 GFP‐B16F10 cells, 2 × 10^5 4T1, or 2 × 10^5 CT26 in 100 µL PBS were injected to the lateral tail vein of mice, respectively. The mice were intravenously injected with saline, AHP‐DRI‐12, and PEG‐tAHP‐DRI (0.2 µg g^–1 AHP‐DRI‐12) shortly before and 24 h after injection of B16F10. Each formulation was administered every 2 days for a total of seven times. After 15 days, mice were sacrificed and perfused with PBS and 4% paraformaldehyde. The hearts, livers, spleens, lungs, and kidneys were collected for H&E staining and immunohistochemistry analysis. Lung metastases were analyzed by quantitation of GFP and metastases nodes.

[5] = system: 4T1 orthotopic tumor model; test: Spontaneous lung metastasis of 4T1 orthotopic breast tumor model; format: in vivo, Balb/c female mice; conditions: intravenous, 0.2 µg g^–1 AHP-DRI-12, every 2 days, 14 times; sacrificed day 30
Procedure: The spontaneous lung metastasis of orthotopic breast tumor model was established via injection of 4T1 cells into the fourth inguinal mammary gland of Balb/c female mice. The mice were intravenously injected with saline, AHP‐DRI‐12, and PEG‐tAHP‐DRI (0.2 µg g^–1 AHP‐DRI‐12), respectively, every 2 days for total of 14 times. Mice were sacrificed on day 30 and their lungs were collected for observation and histological analysis.

HUVECs = test: MTT cytotoxicity assay; format: cell-based, human; conditions: up to 10 × 10^−6 M, 24, 48, 72 h, n = 3
Procedure: To evaluate the cytotoxicity of DR6‐targeting peptides, MTT assay was conducted. Briefly, 4 × 10^3 HUVECs were added in 96‐well plates and grown overnight before incubating with AHP‐DRI‐12 and PEG‐tAHP‐DRI (0.1 × 10^–6, 1.0 × 10^–6, 10 ×10^–6 M AHP‐DRI‐12). After incubating for 24, 48, and 72 h, 100 µL of 0.5 mg mL^–1 MTT was added to each well, and the plates were incubated at 37 °C for 4 h. After the removal of the supernatant, the precipitate was dissolved in 150 µL dimethyl sulfoxide, and the absorbance was measured at 490 nm using a microplate reader.

[6] = B16F10 tumor-bearing mice, 15 days

In the case of “PEG-tAHP-DRI: tetra-(D-retro-inverso isomer of AHP-12) substitued 4-arm PEG5k ([dP][dT][dT][dA][dD][dI][dT]C([maleimide-4‑arm PEG5k]); also: four peptides on one 4-arm PEG5k)”, the Kd (DR6 protein; RED-tris-NTA labeled DR6 protein, final 50 × 10^−9 M, PBS-T, main text and Figure 2B-D, read-out: KD) is reported as ~50 nM, the “binding affinity to DR6 relative to AHP-DRI-12” value (DR6 protein; from KD values) is reported as “almost fourfold greater binding affinity” and the “binding potency and proteolytic stability in vivo by FITC fluorescence on lung frozen sections” value [1] is reported as “best proteolytic stability”. For the same substance, the TCs transendothelial migration [2] was “significantly attenuated TCs transendothelial migration”, the “half-life (T1/2)” value ([3]; blood samples 0.5-72 h, microplate reader, n = 3) was 11.1 h and the “area under the curve (AUC0-72)” value ([3]; compared with AHP-DRI-12) was “significantly larger”. For the same substance, the “necroptosis in lungs, p-RIPK1 immunohistochemical analysis” value [4, 6] was “dramatic decrease of necroptosis in lungs”, the “pulmonary vessel integrity, CD31 staining” value [4, 6] was “remained relatively intact and orderly” and the “expression level of GFP mRNA in lungs” value ([4]; GFP-B16F10 model, compared with vehicle-treated and AHP-DRI-12-treated mice, n = 6) was “less expression level of GFP mRNA in lungs”. The pulmonary metastasis nodules ([4]; intravenous, 0.2 µg g^–1 AHP-DRI-12, every 2 days, seven times, lungs after 15 days) was “least amount of pulmonary metastasis nodules”, the “metastatic loci in lungs, H&E staining” value ([4]; intravenous, 0.2 µg g^–1 AHP-DRI-12, 15 days, n = 6) was “less and smaller metastatic loci” and the “spontaneous metastasis to lungs” value [5] was “efficiently restrain spontaneous metastasis to lungs”. For the same substance, the HUVECs cell viability (HUVECs) was “remained essentially unchanged”.
